Source: PubChem BioAssay AID1259407 (Chemical Carcinogenesis Research Information System (CCRIS), 2018)
Activity calls are given as the source filed them. How the calls were made is not given here.

Test system: CCRIS mutagenicity, Ames/micronucleus/aberration tests
Assay: CCRIS mutagenicity studies
Details: Test System: AMES SALMONELLA TYPHIMURIUM

With CN(C)N=O the mutagenic call (Strain/Indicator: TA100, Metabolic Activation: RAT, LIVER, S-9, AROCLOR 1254, Method: STANDARD PLATE) was “inactive; negative”, the mutagenic call (Strain/Indicator: TA100, Metabolic Activation: RAT, LIVER, S-9, CYCLOHEXANOL, Method: PREINCUBATION) was “active; positive” and the mutagenic call (Strain/Indicator: TA100, Metabolic Activation: RAT, LIVER, S-9, ETHANOL, Method: PREINCUBATION) was “active; positive”. For the same compound, the mutagenic call (Strain/Indicator: TA100, Metabolic Activation: RAT, LIVER, S-9, KC500 OR PHENOBARBITAL, Method: LIQUID SUSPENSION) was “active; positive”, the mutagenic call (Strain/Indicator: TA100, Metabolic Activation: RAT, LIVER, S-9, N-BENZYLIMIDAZOLE, Method: PREINCUBATION) was “active; positive” and the mutagenic call (Strain/Indicator: TA100, Metabolic Activation: RAT, LIVER, S-9, PHENOBARBITAL, Method: PREINCUBATION) was “active; positive”. The mutagenic call (Strain/Indicator: TA100, Metabolic Activation: RAT, LUNG, S-9, Method: STANDARD PLATE) was “inactive; negative”, the mutagenic call (Strain/Indicator: TA100, Metabolic Activation: RAT, NASAL, S-9, Method: STANDARD PLATE) was “inactive; negative” and the mutagenic call (Strain/Indicator: TA100, Metabolic Activation: S-9, Method: PREINCUBATION) was “inactive; negative”. The mutagenic call (Strain/Indicator: TA100, Metabolic Activation: TOBACCO CELLS, Method: PREINCUBATION) was “inactive; negative”, the mutagenic call (Strain/Indicator: TA104, Metabolic Activation: HAMSTER, LIVER, S-9, AROCLOR 1254, NADPH GENERATING SYSTEM, CYTOSOL, Method: PREINCUBATION) was “active; positive” and the mutagenic call (Strain/Indicator: TA104, Metabolic Activation: HAMSTER, LIVER, S-9, AROCLOR 1254, Method: PREINCUBATION) was “active; positive”. For the same compound, the mutagenic call (Strain/Indicator: TA104, Metabolic Activation: HAMSTER, LIVER, S-9, Method: PREINCUBATION) was “active; positive”, the mutagenic call (Strain/Indicator: TA104, Metabolic Activation: MICROSOMES, CYTOSOL, Method: PREINCUBATION) was “active; positive” and the mutagenic call (Strain/Indicator: TA104, Metabolic Activation: RAT, LIVER, S-9, AROCLOR 1254, Method: PREINCUBATION) was “active; positive”. The mutagenic call (Strain/Indicator: TA104, Metabolic Activation: RAT, LIVER, S-9, Method: PREINCUBATION) was “active; positive”, the mutagenic call (Strain/Indicator: TA1530, Metabolic Activation: RAT, LIVER, S-9, AROCLOR 1254, Method: PREINCUBATION) was “active; positive” and the mutagenic call (Strain/Indicator: TA1530, Metabolic Activation: RAT, LIVER, S-9, Method: STANDARD PLATE) was “active; positive”. The mutagenic call (Strain/Indicator: TA1535 (PSK1002), Metabolic Activation: RAT, LIVER, S-9, ISONIAZID, Method: PREINCUBATION) was “active; positive”, the mutagenic call (Strain/Indicator: TA1535, Metabolic Activation: NONE, Method: PREINCUBATION) was “inactive; negative” and the mutagenic call (Strain/Indicator: TA1535, Metabolic Activation: RAT LIVER S-9, ETHANOL (4%), Method: PREINCUBATION) was “inactive; negative”. The mutagenic call (Strain/Indicator: TA1535, Metabolic Activation: RAT, LIVER, HEPATOCYTES, Method: PREINCUBATION) was “active; positive”, the mutagenic call (Strain/Indicator: TA1535, Metabolic Activation: RAT, LIVER, MICROSOMES, KANECHLOR 500, Method: PREINCUBATION) was “active; positive” and the mutagenic call (Strain/Indicator: TA1535, Metabolic Activation: RAT, LIVER, S-9, AROCLOR 1254, (PREGNANT MARE SERUM), Method: PREINCUBATION) was “active; positive”. For the same compound, the mutagenic call (Strain/Indicator: TA1535, Metabolic Activation: RAT, LIVER, S-9, AROCLOR 1254, Method: PREINCUBATION) was “active; positive”, the mutagenic call (Strain/Indicator: TA1535, Metabolic Activation: RAT, LIVER, S-9, AROCLOR, Method: PREINCUBATION) was “active; positive” and the mutagenic call (Strain/Indicator: TA1535, Metabolic Activation: RAT, LIVER, S-9, KC500 OR PHENOBARBITAL, Method: LIQUID SUSPENSION) was “active; positive”. The mutagenic call (Strain/Indicator: TA1535, Metabolic Activation: RAT, LIVER, S-9, SODIUM PHENOBARBITONE, Method: PREINCUBATION) was “active; positive”, the mutagenic call (Strain/Indicator: TA1535, Metabolic Activation: RAT, LIVER, S-9, Method: PREINCUBATION) was “inactive; negative” and the mutagenic call (Strain/Indicator: TA1535, Metabolic Activation: S-9, Method: PREINCUBATION) was “active; positive”.
